Test results: PubChem BioAssay (NCI)
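48-hour exposure; five concentrations; linearly interpolated endpoints. GI50: concentration for 50% inhibition of growth. At the TGI there is no net growth.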

Experiments:
Assay in all cases: growth of human tumour cells (NCI), 48 h
[1] = tested on: UACC-257 melanoma
[2] = tested on: A498 renal
[3] = tested on: CAKI-1 renal
[4] = tested on: COLO 205 colon
[5] = tested on: DU-145 prostate
[6] = tested on: EKVX NSCLC
[7] = tested on: HCC-2998 colon
[8] = tested on: HS 578T breast
[9] = tested on: HT29 colon
[10] = tested on: IGROV1 ovarian
[11] = tested on: K-562 leukemia
[12] = tested on: KM12 colon
[13] = tested on: MALME-3M melanoma
[14] = tested on: MDA-MB-435
[15] = tested on: NCI-H226 lung
[16] = tested on: NCI-H522 lung
[17] = tested on: NCI/ADR-RES ovarian
[18] = tested on: OVCAR-5 ovarian
[19] = tested on: RXF 393 renal
[20] = tested on: SF-295 CNS
[21] = tested on: SF-539 CNS
[22] = tested on: SK-MEL-2 melanoma
[23] = tested on: SK-MEL-28 melanoma
[24] = tested on: SK-MEL-5 melanoma
[25] = tested on: SK-OV-3 ovarian
[26] = tested on: TK-10 renal
[27] = tested on: UO-31 renal
[28] = tested on: 786-0 renal
[29] = tested on: A549 NSCLC
[30] = tested on: ACHN renal
[31] = tested on: CCRF-CEM leukemia
[32] = tested on: HCT-116 colon
[33] = tested on: HCT-15 colon
[34] = tested on: HL-60(TB) leukemia
[35] = tested on: HOP-62 NSCLC
[36] = tested on: HOP-92 NSCLC
[37] = tested on: M14 melanoma
[38] = tested on: MCF7 breast
[39] = tested on: MOLT-4 leukemia
[40] = tested on: NCI-H23 lung
[41] = tested on: NCI-H460 lung
[42] = tested on: OVCAR-3 ovarian
[43] = tested on: OVCAR-4 ovarian
[44] = tested on: OVCAR-8 ovarian
[45] = tested on: PC-3 prostate
[46] = tested on: SF-268 CNS
[47] = tested on: SN12C renal
[48] = tested on: SNB-19 CNS
[49] = tested on: SNB-75 CNS
[50] = tested on: SW-620 colon
[51] = tested on: T-47D breast
[52] = tested on: U251 CNS
[53] = tested on: UACC-62 melanoma
[54] = tested on: LOX IMVI melanoma
[55] = tested on: BT-549 breast
[56] = tested on: MDA-MB-231 breast
[57] = tested on: RPMI-8226 leukemia

For `Clc1ccc2c(N3CCC(CCC4CCN(c5ncnc6cc(Cl)ccc56)CC4)CC3)ncnc2c1`, the GI50 [1] was 61 µM.
For `COc1cc(Cn2c3c(c4c(C(=O)NCCN(C)C)c(O)ccc42)C(=O)c2ccccc2C3=O)cc(OC)c1`, the TGI [2] was 3.45 µM, the TGI [3] was 3.26 µM and the TGI [4] was 3.34 µM. It also gave a TGI [5] of 3.2 µM, a TGI [6] of 3.32 µM and a TGI [7] of 2.35 µM. It also gave a TGI [8] of 4.55 µM, a TGI [9] of 3.45 µM and a TGI [10] of 3.22 µM. The TGI [11] was over 100 µM, the TGI [12] was 3.2 µM and the TGI [13] was 3.05 µM. For the same molecule, the TGI [14] was 3.4 µM, the TGI [15] was 48.3 µM and the TGI [16] was 3.21 µM. It also gave a TGI [17] of 5.21 µM, a TGI [18] of 3.2 µM and a TGI [19] of 5.02 µM. For the same molecule, the TGI [20] was 3.45 µM, the TGI [21] was 3.4 µM and the TGI [22] was 3.36 µM. The TGI [23] was 3.43 µM, the TGI [24] was 3.27 µM and the TGI [25] was 3.88 µM. The TGI [26] was 3.14 µM, the TGI [1] was 3.97 µM and the TGI [27] was 3.23 µM.
`Cc1cn(Cc2ccccc2CCl)c(=O)[nH]c1=O` was tested, and the TGI [28] was 30.2 µM, the TGI [29] was 36.6 µM and the TGI [30] was 27.1 µM. For the same molecule, the TGI [3] was 24.8 µM, the TGI [31] was over 100 µM and the TGI [4] was 45.7 µM. It also gave a TGI [5] of 31.3 µM, a TGI [6] of 33.2 µM and a TGI [7] of 28.8 µM. The TGI [32] was 17.9 µM, the TGI [33] was 31.7 µM and the TGI [34] was 14.8 µM. The TGI [35] was 35.3 µM, the TGI [36] was over 100 µM and the TGI [8] was 56.6 µM. For the same molecule, the TGI [9] was 79.7 µM, the TGI [10] was 13.9 µM and the TGI [11] was 56 µM. It also gave a TGI [12] of 37.4 µM, a TGI [37] of 28.2 µM and a TGI [13] of 57 µM. For the same molecule, the TGI [38] was 19 µM, the TGI [14] was 29 µM and the TGI [39] was over 100 µM. It also gave a TGI [40] of 23.3 µM, a TGI [41] of 44.3 µM and a TGI [16] of 23.9 µM. It also gave a TGI [17] of 36.2 µM, a TGI [42] of 12.6 µM and a TGI [43] of over 100 µM. For the same molecule, the TGI [18] was 43.4 µM, the TGI [44] was 29.2 µM and the TGI [45] was 44.2 µM. It also gave a TGI [19] of 23.9 µM, a TGI [46] of 38.1 µM and a TGI [20] of 30.4 µM. For the same molecule, the TGI [21] was 24.6 µM, the TGI [22] was 33.8 µM and the TGI [23] was 45.5 µM. The TGI [24] was 20.7 µM, the TGI [25] was over 100 µM and the TGI [47] was 32.7 µM. It also gave a TGI [48] of 25.9 µM, a TGI [49] of 30 µM and a TGI [50] of 34.1 µM. For the same molecule, the TGI [51] was 44.8 µM, the TGI [26] was 33.8 µM and the TGI [52] was 21.4 µM. It also gave a TGI [1] of 31.1 µM, a TGI [53] of 28.2 µM and a TGI [27] of 24.8 µM.
`Cc1cccc(C(O)c2ccncc2)c1O` (centres undefined) showed a TGI [29] of over 100 µM, a TGI [30] of over 100 µM and a TGI [31] of over 100 µM. For the same molecule, the TGI [5] was over 100 µM, the TGI [6] was over 100 µM and the TGI [7] was over 100 µM. It also gave a TGI [32] of over 100 µM, a TGI [33] of over 100 µM and a TGI [34] of over 100 µM. The TGI [35] was over 100 µM, the TGI [8] was over 100 µM and the TGI [11] was over 100 µM. It also gave a TGI [12] of over 100 µM, a TGI [54] of over 100 µM and a TGI [37] of over 100 µM. For the same molecule, the TGI [39] was over 100 µM, the TGI [15] was over 100 µM and the TGI [40] was over 100 µM. The TGI [16] was over 100 µM, the TGI [17] was over 100 µM and the TGI [42] was over 100 µM. The TGI [44] was over 100 µM, the TGI [45] was over 100 µM and the TGI [19] was over 100 µM. For the same molecule, the TGI [46] was over 100 µM, the TGI [20] was over 100 µM and the TGI [21] was over 100 µM. For the same molecule, the TGI [24] was over 100 µM, the TGI [47] was over 100 µM and the TGI [48] was over 100 µM. It also gave a TGI [49] of over 100 µM, a TGI [51] of over 100 µM and a TGI [52] of over 100 µM. It also gave a TGI [1] of over 100 µM, a TGI [53] of over 100 µM and a TGI [27] of over 100 µM.
`COc1ccc(-c2cncn2-c2ccc(OC)cc2)cc1` was tested, and the GI50 [28] was 21.9 µM, the TGI [28] was 49.1 µM and the GI50 [2] was 16.3 µM. For the same molecule, the TGI [2] was 34.3 µM, the GI50 [29] was 20.6 µM and the TGI [29] was 49.3 µM. For the same molecule, the GI50 [30] was 21.3 µM, the TGI [30] was 60.4 µM and the GI50 [55] was 12.3 µM. It also gave a TGI [55] of 32.5 µM, a GI50 [3] of 20.6 µM and a TGI [3] of 44 µM. It also gave a GI50 [5] of 14.9 µM, a TGI [5] of 32.5 µM and a GI50 [6] of 4.08 µM. For the same molecule, the TGI [6] was 27.1 µM, the GI50 [7] was 16.7 µM and the TGI [7] was 32.2 µM. It also gave a GI50 [32] of 20.5 µM, a TGI [32] of 44 µM and a GI50 [33] of 19.6 µM. The TGI [33] was over 100 µM, the GI50 [34] was 9.06 µM and the TGI [34] was 26.2 µM. It also gave a GI50 [35] of 22.8 µM, a TGI [35] of 67.4 µM and a GI50 [36] of 23 µM. It also gave a TGI [36] of 84.8 µM, a GI50 [8] of 17.5 µM and a TGI [8] of 56 µM. The GI50 [10] was 18.7 µM, the TGI [10] was 62.5 µM and the GI50 [11] was 10.8 µM. The TGI [11] was 36.9 µM, the GI50 [12] was 10.2 µM and the TGI [12] was 29 µM. The GI50 [54] was 29.6 µM, the TGI [54] was over 100 µM and the GI50 [37] was 20.8 µM. The TGI [37] was 46.9 µM, the GI50 [38] was 17.4 µM and the TGI [38] was 41.2 µM. The GI50 [56] was 21.3 µM, the TGI [56] was 71 µM and the GI50 [14] was 3.62 µM. It also gave a TGI [14] of 14.1 µM, a GI50 [15] of 22.5 µM and a TGI [15] of 98.3 µM. It also gave a GI50 [40] of 19.1 µM, a TGI [40] of 48.3 µM and a GI50 [41] of 15.6 µM. It also gave a TGI [41] of 48.4 µM, a GI50 [16] of 13.6 µM and a TGI [16] of 38.3 µM. For the same molecule, the GI50 [17] was 19.3 µM, the TGI [17] was 42.9 µM and the GI50 [42] was 20 µM. It also gave a TGI [42] of 45.5 µM, a GI50 [43] of 28.9 µM and a TGI [43] of over 100 µM. For the same molecule, the GI50 [18] was 25.2 µM, the TGI [18] was 82.7 µM and the GI50 [44] was 21.1 µM. It also gave a TGI [44] of 52.8 µM, a GI50 [45] of 30 µM and a TGI [45] of over 100 µM. The GI50 [57] was 10.9 µM, the TGI [57] was 32.5 µM and the GI50 [19] was 0.376 µM. It also gave a TGI [19] of 9.46 µM, a GI50 [46] of 21.7 µM and a TGI [46] of 66.2 µM. For the same molecule, the GI50 [20] was 12.7 µM, the TGI [20] was 47 µM and the GI50 [21] was 11.2 µM. For the same molecule, the TGI [21] was 29.2 µM, the GI50 [22] was 17.9 µM and the TGI [22] was 42.9 µM. It also gave a GI50 [24] of 17.9 µM, a TGI [24] of 33.8 µM and a GI50 [47] of 18.1 µM. It also gave a TGI [47] of 48.3 µM, a GI50 [50] of 26.1 µM and a TGI [50] of over 100 µM. For the same molecule, the GI50 [26] was 17.4 µM, the TGI [26] was 41.9 µM and the GI50 [52] was 25.3 µM. The TGI [52] was over 100 µM, the GI50 [1] was 21.4 µM and the TGI [1] was 62.2 µM. It also gave a GI50 [53] of 15.7 µM, a TGI [53] of 53.1 µM and a GI50 [27] of 17.2 µM. For the same molecule, the TGI [27] was 53.6 µM.
